Data: patent publication US10377902B2, “Crystallized red pigment, method of producing a recrystallized red pigment and a method for improving the appearance of or preventing wrinkles” (priority 2013, dated 2019)
Converted amounts (≈) assume the structure as drawn. “Also recorded” adds a separate entry of the source. Marks after values point to notes of the source that are not given here.

Columns and labels:
[1] = system: Human umbilical vein endothelial cells (HUVEC); test: Angiogenesis, Tube Formation (Assay#368000): HUVEC tube network on Matrigel; type: cell-based
Experimental: Following biological test results were conducted by Ricerca Bioscience, LLC (http://www.Ricerca.com.) under a contract (Assay#368000, Tumor, Angiogenesis, Tube Formation) with the crystalized red pigment prepared in Example 1.
Human umbilical vein endothelial cells (HUVEC) differentiate to capillary-like structures and form vessel network on Matrigel in the presence of endothelial cell growth supplements. The anti-angiogenic activity of a test compound can be assessed by observing continuity of vessel network compared with untreated control. Test compound (crystallized red pigment prepared in […]) was tested for an effect on anti-angiogenesis at five final concentrations of 100, 10, 1, 0.1 and 0.01 μg/mL.
The crystalized red pigment prepared in Example 1 was dissolved in 100% dimethyl sulfoxide (DMSO) and then diluted with sterile distilled water to obtain solutions of […] in 40% DMSO. The solutions were diluted 100-fold with culture medium to generate final concentrations of 0.01, 0.1, 1, 10 and 100 μg/mL.
HUVEC was purchased from American Type Culture Collection (ATCC CRL-1730). HUVEC cells were incubated in 5% CO2 atmosphere of at 37° C. The culture medium used was Endothelial Cell Growth Medium supplemented with 10v/v % fetal bovine serum and 1% antifungal antibiotic.
Matrigel matrix was thawed, kept on ice at 4° C. and 50μL of the matrix was transferred to each well of a 96-microwell culture plate. The plate was incubated at 37° C. for at least one hour to allow the matrix solution to solidify before treatment.
Aliquots of […] of HUVEC suspension (about 1.5×10^4 cells/well) were placed in the 96-well matrigel plate. Two microliters per well of test compound solution or vehicle (40% DMSO) was then added and incubated at 5% CO2, 37° C. for 18 hours (in duplicate). The final concentration of DMSO was 0.4%. The test compound was evaluated at concentrations of 100, 10, 1, 0.1 and 0.01 μg/mL. At the end of incubation, a tube network formed by endothelial cell in each wells was evaluated by photomicroscopy (magnification of 40×) and photographed. The total length of tube network was measured from each photograph (FIG. 1).
The reduction of the total length of tube network in test compound treatment to the total length of tube network in vehicle treatment control indicates anti-angiogenic activity. The minimum inhibitory concentration (MIC) and 50% inhibition concentration (IC50) were determined to assess effect of the test substance on anti-angiogenesis.

HuVEC cells = test: Cytotoxicity / growth of vascular endothelial cells; type: cell-based, human; settings: a few hundred micro mole level
Description: The growth activity of cells under exposure to NYG-1 was detected by using HuVEC cells which is an in vitro cell model. […] Further, suramin was used as a positive control.

HuVECs = test: Tube formation of HuVECs in the presence of VEGF; type: cell-based, human; settings: 30 μM, not showing cytotoxicity
Experimental: In turn, whether NYG-1 can suppress angiogenesis ability of HuVECs was tested.

[2] = system: HUVEC (human umbilical vein endothelial cells); test: Cell proliferation, VEGF-Induced (307900), antagonist mode; type: cell-based; settings: concurrent batch 305353, antagonist, read-out: Concurrent IC50/EC50
Experimental: Measurement of proliferation inhibition activity of VEGF-Induced cell of vascular endothelial cells by purified red pigment from Saw palmetto.
The final concentration in the test was given as 100 μg/mL and 10 μg/mL.
HUVEC cells were incubated in air atmosphere of 5% CO2 at 37° C. The culture medium used was Endothelial Cell Growth Medium with 10% fetal bovine serum (FBS). The medium for assay was
M199 medium supplemented with 10% FBS and 10 μg/mL of Heparin.
Aliquots of HUVEC (1.1×10^5 cells/ well) were pre-seeded in the 96-well TC plate in an incubator at 5% CO2, 37° C. Test compound solution or vehicle (DMSO) was then added per well and incubated at 5% CO2, 37° C. for 20 minutes. Thereafter, VEGF165 (0.2 nM) was added and incubated for 48 hours. 48 hours later, the cells were washed with HBSS once. Then 5 μg/mL of the fluorescence reagent, CalceinAM dye (BD Biosciences, USA) was added and incubated for another 50 minutes. After incubation, fluorescence intensity was detected by Micro plate reader. More than 50% of suppression for VEGF165 induced proliferation was indicated for the significant antagonistic activity of the test reagent.

Structure (SMILES) | effect on tube formation (in words) ([1]; 30 μM) | effect on tube formation (in words) ([1]; 30 and 15 μM) | IC50 ([1]; Homo sapiens, HUVEC) [µM] | % Inhibition of total tube length (mean ± SEM) ([1]; suramin concentration 1 (head prints μg/mL)) [%] | % Inhibition of total tube length (mean ± SEM) ([1]; suramin concentration 3 (head prints μg/mL)) [%] | % Inhibition of total tube length (mean ± SEM) ([1]; suramin concentration 10 (head prints μg/mL)) [%] | % Inhibition of total tube length (mean ± SEM) ([1]; suramin concentration 15 (head prints μg/mL)) | % Inhibition of total tube length (mean ± SEM) ([1]; suramin concentration 30 (head prints μg/mL)) | MIC (minimum inhibitory concentration) ([1]; tube formation) [µM] | cytotoxicity on HuVEC cells (HuVEC cells) | blood vessel formation (in words) (HuVECs) | IC50 [2] [µM]
Cc1ccc(C(=O)Nc2ccc(S(=O)(=O)O)c3cc(S(=O)(=O)O)cc(S(=O)(=O)O)c23)cc1NC(=O)c1cccc(NC(=O)Nc2cccc(C(=O)Nc3cc(C(=O)Nc4ccc(S(=O)(=O)O)c5cc(S(=O)(=O)O)cc(S(=O)(=O)O)c45)ccc3C)c2)c1 [Suramin] | almost no tube formation; also recorded: completely inhibited | significant inhibition | 16 | 3 ± 4 | 4 ± 5 | 8 ± 1 | 42 ± 9^ab % | 100 ± 0^a % | 15 (≈ 19.5 µg/mL) | strong cytotoxicity | can suppress blood vessel formation | 
Cc1cc(C)c(/C=C2\C(=O)Nc3ccccc32)[nH]1 [SU5416] |  |  |  |  |  |  |  |  |  |  |  | 0.12
